Test results as given in ChEMBL document CHEMBL3991601, “The target landscape of clinical kinase drugs” (Science, 2017).
The source made the active and inactive calls. Rule as the data show it, for most assays here: actives have a measured Kd and inactives only a lower limit.

What was measured:
[1] = biological target: T1, Serine/threonine-protein kinase Nek3 (Homo sapiens, UniProt P51956)
T1 sequence (P51956 whole entry): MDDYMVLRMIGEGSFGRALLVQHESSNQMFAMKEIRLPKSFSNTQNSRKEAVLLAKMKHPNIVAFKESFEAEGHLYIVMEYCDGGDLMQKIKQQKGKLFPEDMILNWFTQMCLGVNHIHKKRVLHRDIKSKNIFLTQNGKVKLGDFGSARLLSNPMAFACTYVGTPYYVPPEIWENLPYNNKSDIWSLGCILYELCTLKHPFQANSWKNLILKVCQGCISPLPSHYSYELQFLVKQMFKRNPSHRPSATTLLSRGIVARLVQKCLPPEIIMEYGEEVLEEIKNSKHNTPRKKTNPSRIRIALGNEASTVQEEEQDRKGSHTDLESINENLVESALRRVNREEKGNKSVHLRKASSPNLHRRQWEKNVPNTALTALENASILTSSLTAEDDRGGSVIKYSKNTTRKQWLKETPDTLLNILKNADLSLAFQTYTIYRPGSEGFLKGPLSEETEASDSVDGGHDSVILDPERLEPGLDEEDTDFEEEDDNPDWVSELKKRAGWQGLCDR

Activin receptor type-1B = biological target: T2, Activin receptor type-1B (Homo sapiens, UniProt P36896)
T2 sequence (P36896 whole entry): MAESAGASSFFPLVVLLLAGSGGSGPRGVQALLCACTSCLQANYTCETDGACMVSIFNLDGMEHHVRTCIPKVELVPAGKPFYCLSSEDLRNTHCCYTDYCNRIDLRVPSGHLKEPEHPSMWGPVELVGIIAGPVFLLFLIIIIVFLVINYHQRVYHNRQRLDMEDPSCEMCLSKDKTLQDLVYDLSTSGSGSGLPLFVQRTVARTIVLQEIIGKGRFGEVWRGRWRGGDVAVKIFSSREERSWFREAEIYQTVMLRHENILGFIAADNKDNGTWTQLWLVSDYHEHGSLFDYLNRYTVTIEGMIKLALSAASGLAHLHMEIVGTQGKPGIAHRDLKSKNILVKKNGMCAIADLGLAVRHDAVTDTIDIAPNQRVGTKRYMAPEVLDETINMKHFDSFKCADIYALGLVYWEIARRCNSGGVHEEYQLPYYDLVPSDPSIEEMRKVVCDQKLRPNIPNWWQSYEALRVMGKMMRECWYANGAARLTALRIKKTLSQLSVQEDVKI

[2] = biological target: Ribosomal protein S6 kinase alpha-5 (Homo sapiens, UniProt O75582)
Sequence of Ribosomal protein S6 kinase alpha-5 (O75582 whole entry): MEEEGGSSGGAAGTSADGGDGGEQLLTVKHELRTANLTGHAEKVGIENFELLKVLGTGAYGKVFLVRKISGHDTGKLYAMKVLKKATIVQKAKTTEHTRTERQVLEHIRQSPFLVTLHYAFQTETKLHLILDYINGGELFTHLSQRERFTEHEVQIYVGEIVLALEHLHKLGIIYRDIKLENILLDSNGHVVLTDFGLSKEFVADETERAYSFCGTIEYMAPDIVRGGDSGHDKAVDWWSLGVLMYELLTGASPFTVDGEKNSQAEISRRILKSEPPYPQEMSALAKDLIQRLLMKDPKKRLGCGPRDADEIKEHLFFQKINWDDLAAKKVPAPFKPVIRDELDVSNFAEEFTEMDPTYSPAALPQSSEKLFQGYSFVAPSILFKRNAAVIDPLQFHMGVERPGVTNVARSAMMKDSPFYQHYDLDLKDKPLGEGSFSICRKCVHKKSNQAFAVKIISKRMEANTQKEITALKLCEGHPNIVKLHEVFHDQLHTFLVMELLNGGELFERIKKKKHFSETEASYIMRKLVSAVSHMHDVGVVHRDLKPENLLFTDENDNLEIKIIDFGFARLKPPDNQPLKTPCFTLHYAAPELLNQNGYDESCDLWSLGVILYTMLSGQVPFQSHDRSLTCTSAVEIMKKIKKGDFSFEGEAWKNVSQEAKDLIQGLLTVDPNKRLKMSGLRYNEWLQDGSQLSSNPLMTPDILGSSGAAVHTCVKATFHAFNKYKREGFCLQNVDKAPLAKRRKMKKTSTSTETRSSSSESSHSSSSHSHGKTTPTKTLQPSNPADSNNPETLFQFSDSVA

[3] = biological target: T3, Exosome RNA helicase MTR4 (Homo sapiens, UniProt P42285)
T3 sequence (P42285 whole entry): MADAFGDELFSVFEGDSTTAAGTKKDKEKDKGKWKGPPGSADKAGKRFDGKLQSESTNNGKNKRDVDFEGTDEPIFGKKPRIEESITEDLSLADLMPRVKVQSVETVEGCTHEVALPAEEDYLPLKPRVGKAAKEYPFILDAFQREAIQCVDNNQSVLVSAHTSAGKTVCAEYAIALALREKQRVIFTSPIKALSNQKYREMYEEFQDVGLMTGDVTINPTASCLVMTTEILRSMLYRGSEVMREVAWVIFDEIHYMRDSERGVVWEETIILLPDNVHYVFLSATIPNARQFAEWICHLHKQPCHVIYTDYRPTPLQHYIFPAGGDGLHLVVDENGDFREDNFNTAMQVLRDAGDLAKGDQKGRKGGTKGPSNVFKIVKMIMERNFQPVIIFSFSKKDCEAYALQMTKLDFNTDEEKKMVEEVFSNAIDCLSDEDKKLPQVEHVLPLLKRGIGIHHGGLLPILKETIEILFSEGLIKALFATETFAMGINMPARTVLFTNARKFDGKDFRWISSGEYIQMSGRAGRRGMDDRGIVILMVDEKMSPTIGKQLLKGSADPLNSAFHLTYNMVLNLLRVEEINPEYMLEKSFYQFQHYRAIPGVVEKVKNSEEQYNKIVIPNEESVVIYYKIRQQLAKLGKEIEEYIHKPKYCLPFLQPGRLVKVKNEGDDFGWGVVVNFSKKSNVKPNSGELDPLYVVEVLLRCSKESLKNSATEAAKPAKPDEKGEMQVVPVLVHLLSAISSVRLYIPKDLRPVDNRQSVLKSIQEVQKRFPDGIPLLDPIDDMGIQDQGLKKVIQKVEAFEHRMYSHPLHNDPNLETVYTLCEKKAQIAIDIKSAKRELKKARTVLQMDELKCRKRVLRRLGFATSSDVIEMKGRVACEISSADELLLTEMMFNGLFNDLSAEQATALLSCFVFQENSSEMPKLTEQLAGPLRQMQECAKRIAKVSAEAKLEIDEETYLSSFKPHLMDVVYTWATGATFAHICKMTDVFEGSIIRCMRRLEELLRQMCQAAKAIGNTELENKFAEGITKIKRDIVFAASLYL

[4] = biological target: Protein-tyrosine kinase 2-beta (Homo sapiens, UniProt Q14289)
Sequence of Protein-tyrosine kinase 2-beta (Q14289 whole entry, canonical isoform): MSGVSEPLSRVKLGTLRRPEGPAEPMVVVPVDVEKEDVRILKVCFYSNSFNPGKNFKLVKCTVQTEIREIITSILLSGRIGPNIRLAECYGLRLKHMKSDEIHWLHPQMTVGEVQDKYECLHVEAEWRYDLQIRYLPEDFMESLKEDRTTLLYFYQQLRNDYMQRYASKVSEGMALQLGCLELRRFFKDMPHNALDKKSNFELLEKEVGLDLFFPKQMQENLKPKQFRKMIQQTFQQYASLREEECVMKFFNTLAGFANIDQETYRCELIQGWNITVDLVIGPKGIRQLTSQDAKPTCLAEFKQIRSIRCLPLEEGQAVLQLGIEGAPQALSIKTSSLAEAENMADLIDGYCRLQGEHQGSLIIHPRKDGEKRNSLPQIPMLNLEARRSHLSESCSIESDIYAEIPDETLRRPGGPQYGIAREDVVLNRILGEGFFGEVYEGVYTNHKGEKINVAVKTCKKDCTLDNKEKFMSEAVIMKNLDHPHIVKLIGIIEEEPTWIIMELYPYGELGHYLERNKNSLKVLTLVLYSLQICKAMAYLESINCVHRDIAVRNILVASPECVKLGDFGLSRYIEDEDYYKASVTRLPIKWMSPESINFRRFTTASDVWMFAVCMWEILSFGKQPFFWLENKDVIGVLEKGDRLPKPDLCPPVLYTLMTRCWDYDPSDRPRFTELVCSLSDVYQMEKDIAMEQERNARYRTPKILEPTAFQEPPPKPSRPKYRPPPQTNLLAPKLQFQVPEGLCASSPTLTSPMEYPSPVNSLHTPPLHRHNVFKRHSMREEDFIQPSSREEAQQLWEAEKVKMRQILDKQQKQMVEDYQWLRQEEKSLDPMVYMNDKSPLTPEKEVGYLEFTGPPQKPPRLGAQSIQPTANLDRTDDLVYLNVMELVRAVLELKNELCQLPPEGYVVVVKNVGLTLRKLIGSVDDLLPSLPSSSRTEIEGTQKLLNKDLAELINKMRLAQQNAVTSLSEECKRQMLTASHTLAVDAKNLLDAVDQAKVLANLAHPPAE

[5] = biological target: Casein kinase I isoform epsilon (Homo sapiens, UniProt P49674)
Sequence of Casein kinase I isoform epsilon (P49674 whole entry, canonical isoform): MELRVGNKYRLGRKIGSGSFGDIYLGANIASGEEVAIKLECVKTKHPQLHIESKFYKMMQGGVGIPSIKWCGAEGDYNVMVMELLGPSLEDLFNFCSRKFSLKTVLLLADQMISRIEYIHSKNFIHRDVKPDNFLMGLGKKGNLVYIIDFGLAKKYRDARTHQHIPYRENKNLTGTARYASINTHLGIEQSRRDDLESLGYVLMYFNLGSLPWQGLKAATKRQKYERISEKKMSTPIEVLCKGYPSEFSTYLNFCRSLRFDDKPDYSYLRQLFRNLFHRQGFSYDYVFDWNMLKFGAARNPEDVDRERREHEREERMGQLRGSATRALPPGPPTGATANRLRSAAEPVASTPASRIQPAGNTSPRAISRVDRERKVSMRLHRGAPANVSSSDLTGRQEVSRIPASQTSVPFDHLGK
Also: in the data inactive means no Kd found up to 30 µM.

Row | Compound | Kd [1] | Kd (Activin receptor type-1B) | Kd [2] | Kd [3] | Kd [4] | Kd [5]
1 | NC[C@@](O)(c1ccc(Cl)cc1)c1ccc(-c2cn[nH]c2)cc1 [AT-13148] | > 30 µM (inactive) | > 30 µM (inactive) | > 30 µM (inactive) | > 30 µM (inactive) | > 30 µM (inactive) | > 30 µM (inactive)
2 | C=CCN(/C=C1/C(=O)O[C@H](COC)[C@@]2(C)C1=C(O)C(=O)C1=C2[C@H](OC(C)=O)C[C@]2(C)C(=O)CC[C@@H]12)CC=C [SONOLISIB] | > 30 µM (inactive) | > 30 µM (inactive) | > 30 µM (inactive) | > 30 µM (inactive) | > 30 µM (inactive) | > 30 µM (inactive)
3 | COc1cc2nccc(Oc3ccc(NC(=O)C4(C(=O)Nc5ccc(F)cc5)CC4)cc3)c2cc1OC [CABOZANTINIB] | > 30 µM (inactive) | > 30 µM (inactive) | > 30 µM (inactive) | > 30 µM (inactive) | > 30 µM (inactive) | > 30 µM (inactive)
4 | C[C@@H]1COC(Nc2ccc3ncnc(Nc4ccc(OCc5nccs5)c(Cl)c4)c3c2)=N1 [VARLITINIB] | > 30 µM (inactive) | > 30 µM (inactive) | > 30 µM (inactive) | > 30 µM (inactive) | > 30 µM (inactive) | > 30 µM (inactive)
5 | Cc1c(NC(=O)OC[C@@H]2COCCN2)cn2ncnc(Nc3ccc4c(cnn4Cc4cccc(F)c4)c3)c12 [AC-480] | > 30 µM (inactive) | > 30 µM (inactive) | > 30 µM (inactive) | > 30 µM (inactive) | > 30 µM (inactive) | > 30 µM (inactive)
6 | COc1ccc(-c2ccc3ncc4c(c3c2)n(-c2ccc(N3CCNCC3)c(C(F)(F)F)c2)c(=O)n4C)cn1 [BGT-226 FREE BASE] | > 30 µM (inactive) | > 30 µM (inactive) | > 30 µM (inactive) | > 30 µM (inactive) | > 30 µM (inactive) | > 30 µM (inactive)
7 | CCN(CCCOc1ccc2c(Nc3cc(CC(=O)Nc4cccc(F)c4)n[nH]3)ncnc2c1)CCOP(=O)(O)O [BARASERTIB] | > 30 µM (inactive) | > 30 µM (inactive) | > 30 µM (inactive) | > 30 µM (inactive) | > 30 µM (inactive) | > 30 µM (inactive)
8 | Cc1cc(Nc2nc(N[C@@H](C)c3ncc(F)cn3)ncc2Cl)n[nH]1 [AZD-1480] | > 30 µM (inactive) | > 30 µM (inactive) | > 30 µM (inactive) | > 30 µM (inactive) | 1.88 µM (active) | > 30 µM (inactive)
9 | CCc1cc2c(cc1N1CCC(N3CCOCC3)CC1)C(C)(C)c1[nH]c3cc(C#N)ccc3c1C2=O [ALECTINIB] | > 30 µM (inactive) | > 30 µM (inactive) | > 30 µM (inactive) | > 30 µM (inactive) | > 30 µM (inactive) | > 30 µM (inactive)
10 | FC(F)(F)c1ccc(CNc2ccc(Cc3c[nH]c4ncc(Cl)cc34)cn2)cn1 [PEXIDARTINIB] | > 30 µM (inactive) | > 30 µM (inactive) | > 30 µM (inactive) | > 30 µM (inactive) | > 30 µM (inactive) | > 30 µM (inactive)
11 | O=S(=O)(c1cccc2c(O)nccc12)N1CCCNCC1 [HYDROXYFASUDIL] | > 30 µM (inactive) | > 30 µM (inactive) | > 30 µM (inactive) | > 30 µM (inactive) | > 30 µM (inactive) | > 30 µM (inactive)
